Laboratory results from ChEMBL document CHEMBL3045792, “Synthesis, antimicrobial activity, and molecular modeling of novel 4-(3-(4-benzylpiperazin-1-yl)propoxy)-7-methoxy-3-substituted phenyl-2H-chromen-2-one” (2013).
Activity calls are given as the source filed them. The calls are words filed in the database; no cut-off is given here.

Legend:
Assay type in all cases: functional
Staphylococcus aureus [1] = assay: Antibacterial activity against Staphylococcus aureus assessed as growth inhibition at 600 ug/ml by NCCLS […] method; conditions: read-out: IZ
Bacillus pumilus [2] = assay: Antibacterial activity against Bacillus pumilus assessed as growth inhibition at 900 ug/ml by NCCLS […] method
Bacillus pumilus [3] = assay: Antibacterial activity against Bacillus pumilus assessed as growth inhibition at 600 ug/ml by NCCLS […] method
Priestia megaterium [4] = assay: Antibacterial activity against Bacillus megaterium assessed as growth inhibition at 900 ug/ml by NCCLS […] method; conditions: read-out: IZ
Priestia megaterium [5] = assay: Antibacterial activity against Bacillus megaterium assessed as growth inhibition at 600 ug/ml by NCCLS […] method; conditions: read-out: IZ
Bacillus subtilis [6] = assay: Antibacterial activity against Bacillus subtilis assessed as growth inhibition at 900 ug/ml by NCCLS […] method; conditions: read-out: IZ
Bacillus subtilis [7] = assay: Antibacterial activity against Bacillus subtilis assessed as growth inhibition at 600 ug/ml by NCCLS […] method; conditions: read-out: IZ
Klebsiella aerogenes [8] = assay: Antibacterial activity against Enterobacter aerogenes assessed as growth inhibition at 900 ug/ml by NCCLS […] method; conditions: read-out: IZ
Klebsiella aerogenes [9] = assay: Antibacterial activity against Enterobacter aerogenes assessed as growth inhibition at 600 ug/ml by NCCLS […] method; conditions: read-out: IZ
Klebsiella pneumoniae [10] = assay: Antibacterial activity against Klebsiella pneumoniae assessed as growth inhibition at 900 ug/ml by NCCLS […] method; conditions: read-out: IZ
Klebsiella pneumoniae [11] = assay: Antibacterial activity against Klebsiella pneumoniae assessed as growth inhibition at 600 ug/ml by NCCLS […] method; conditions: read-out: IZ
Proteus mirabilis [12] = assay: Antibacterial activity against Proteus mirabilis assessed as growth inhibition at 900 ug/ml by NCCLS […] method; conditions: read-out: IZ
Proteus mirabilis [13] = assay: Antibacterial activity against Proteus mirabilis assessed as growth inhibition at 600 ug/ml by NCCLS […] method; conditions: read-out: IZ
Proteus vulgaris [14] = assay: Antibacterial activity against Proteus vulgaris assessed as growth inhibition at 900 ug/ml by NCCLS […] method; conditions: read-out: IZ
Proteus vulgaris [15] = assay: Antibacterial activity against Proteus vulgaris assessed as growth inhibition at 600 ug/ml by NCCLS […] method; conditions: read-out: IZ
Escherichia coli [16] = assay: Antibacterial activity against Escherichia coli assessed as growth inhibition at 900 ug/ml by NCCLS […] method; conditions: read-out: IZ
Fusarium oxysporum [17] = assay: Antifungal activity against Fusarium oxysporum assessed as growth inhibition at 900 ug/ml; conditions: read-out: IZ
Fusarium oxysporum [18] = assay: Antifungal activity against Fusarium oxysporum assessed as growth inhibition at 600 ug/ml; conditions: read-out: IZ
Fusarium oxysporum [19] = assay: Antifungal activity against Fusarium oxysporum assessed as growth inhibition at 300 ug/ml; conditions: read-out: IZ
Candida albicans [20] = assay: Antifungal activity against Candida albicans assessed as growth inhibition at 1200 ug/ml; conditions: read-out: IZ
Candida albicans [21] = assay: Antifungal activity against Candida albicans assessed as growth inhibition at 900 ug/ml; conditions: read-out: IZ
Candida albicans [22] = assay: Antifungal activity against Candida albicans assessed as growth inhibition at 600 ug/ml; conditions: read-out: IZ
Candida albicans [23] = assay: Antifungal activity against Candida albicans assessed as growth inhibition at 300 ug/ml; conditions: read-out: IZ
Streptococcus pyogenes [24] = assay: Antibacterial activity against Streptococcus pyogenes assessed as growth inhibition at 600 ug/ml by NCCLS […] method; conditions: read-out: IZ
Streptococcus pyogenes [25] = assay: Antibacterial activity against Streptococcus pyogenes assessed as growth inhibition at 900 ug/ml by NCCLS […] method; conditions: read-out: IZ
Staphylococcus aureus [26] = assay: Antibacterial activity against Staphylococcus aureus assessed as growth inhibition at 900 ug/ml by NCCLS […] method; conditions: read-out: IZ
Escherichia coli [27] = assay: Antibacterial activity against Escherichia coli assessed as growth inhibition at 600 ug/ml by NCCLS […] method; conditions: read-out: IZ
Colletotrichum falcatum [28] = assay: Antifungal activity against Glomerella tucumanensis assessed as growth inhibition at 1200 ug/ml; conditions: read-out: IZ
Colletotrichum falcatum [29] = assay: Antifungal activity against Glomerella tucumanensis assessed as growth inhibition at 900 ug/ml; conditions: read-out: IZ
Colletotrichum falcatum [30] = assay: Antifungal activity against Glomerella tucumanensis assessed as growth inhibition at 600 ug/ml; conditions: read-out: IZ
Colletotrichum falcatum [31] = assay: Antifungal activity against Glomerella tucumanensis assessed as growth inhibition at 300 ug/ml; conditions: read-out: IZ
Exserohilum rostratum [32] = assay: Antifungal activity against Setosphaeria rostrata assessed as growth inhibition at 1200 ug/ml; conditions: read-out: IZ
Exserohilum rostratum [33] = assay: Antifungal activity against Setosphaeria rostrata assessed as growth inhibition at 900 ug/ml; conditions: read-out: IZ
Exserohilum rostratum [34] = assay: Antifungal activity against Setosphaeria rostrata assessed as growth inhibition at 600 ug/ml; conditions: read-out: IZ
Exserohilum rostratum [35] = assay: Antifungal activity against Setosphaeria rostrata assessed as growth inhibition at 300 ug/ml; conditions: read-out: IZ
Fusarium oxysporum [36] = assay: Antifungal activity against Fusarium oxysporum assessed as growth inhibition at 1200 ug/ml; conditions: read-out: IZ

Row | Compound | zone of inhibition at 600 µg/mL (Staphylococcus aureus [1]) | zone of inhibition at 900 µg/mL (Priestia megaterium [4]) | zone of inhibition at 600 µg/mL (Priestia megaterium [5]) | zone of inhibition at 900 µg/mL (Bacillus subtilis [6]) | zone of inhibition at 600 µg/mL (Bacillus subtilis [7]) | zone of inhibition at 900 µg/mL (Klebsiella aerogenes [8]) | zone of inhibition at 600 µg/mL (Klebsiella aerogenes [9]) | zone of inhibition at 900 µg/mL (Klebsiella pneumoniae [10]) | zone of inhibition at 600 µg/mL (Klebsiella pneumoniae [11]) | zone of inhibition at 900 µg/mL (Proteus mirabilis [12]) | zone of inhibition at 600 µg/mL (Proteus mirabilis [13]) | zone of inhibition at 900 µg/mL (Proteus vulgaris [14]) | zone of inhibition at 600 µg/mL (Proteus vulgaris [15]) | zone of inhibition at 900 µg/mL (Escherichia coli [16]) | zone of inhibition at 900 µg/mL (Fusarium oxysporum [17]) | zone of inhibition at 600 µg/mL (Fusarium oxysporum [18]) | zone of inhibition at 300 µg/mL (Fusarium oxysporum [19]) | zone of inhibition at 1200 µg/mL (Candida albicans [20]) | zone of inhibition at 900 µg/mL (Candida albicans [21]) | zone of inhibition at 600 µg/mL (Candida albicans [22]) | other results
1 | COc1ccc2c(OCCCN3CCN(Cc4ccc(Br)cc4)CC3)c(-c3ccccc3)c(=O)oc2c1 | 4.25 mm | 12.1 mm | 6.25 mm | 4.16 mm | 2.08 mm | 6.8 mm | 3.25 mm | 6.24 mm | 2.89 mm | 5.02 mm | 4.28 mm | 10.2 mm | 5.02 mm | 4.01 mm | 14.2 mm | 6.15 mm | 3.56 mm | 19.6 mm | 10.1 mm | 5.84 mm | growth inhibition (GI) (Bacillus pumilus [2]): inactive; growth inhibition (GI) (Bacillus pumilus [3]): inactive; zone of inhibition at 300 µg/mL (Candida albicans [23]): 3.02 mm; zone of inhibition at 600 µg/mL (Streptococcus pyogenes [24]): 6.25 mm; zone of inhibition at 900 µg/mL (Streptococcus pyogenes [25]): 13.1 mm; zone of inhibition at 900 µg/mL (Staphylococcus aureus [26]): 8 mm; zone of inhibition at 600 µg/mL (Escherichia coli [27]): 2 mm; zone of inhibition at 1200 µg/mL (Colletotrichum falcatum [28]): 33.8 mm; zone of inhibition at 900 µg/mL (Colletotrichum falcatum [29]): 19.4 mm; zone of inhibition at 600 µg/mL (Colletotrichum falcatum [30]): 9.76 mm; zone of inhibition at 300 µg/mL (Colletotrichum falcatum [31]): 5.62 mm; zone of inhibition at 1200 µg/mL (Exserohilum rostratum [32]): 31.3 mm; zone of inhibition at 900 µg/mL (Exserohilum rostratum [33]): 15.6 mm; zone of inhibition at 600 µg/mL (Exserohilum rostratum [34]): 8.12 mm; zone of inhibition at 300 µg/mL (Exserohilum rostratum [35]): 4.56 mm; zone of inhibition at 1200 µg/mL (Fusarium oxysporum [36]): 29.4 mm
2 | CN[C@@H]1[C@H](O[C@H]2[C@H](O[C@H]3[C@H](O)[C@@H](O)[C@H](N=C(N)N)[C@@H](O)[C@@H]3N=C(N)N)O[C@@H](C)[C@]2(O)C=O)O[C@@H](CO)[C@H](O)[C@H]1O [STREPTOMYCIN] | 10.3 mm | 12.8 mm | 6.23 mm | 16.2 mm | 8.44 mm | 8.76 mm | 4.47 mm | 6.54 mm | 3.24 mm | 20.3 mm | 12.8 mm | 16.1 mm | 8.9 mm | 6.14 mm |  |  |  |  |  |  | zone of inhibition at 900 µg/mL (Bacillus pumilus [2]; read-out: IZ): 14.5 mm; zone of inhibition at 600 µg/mL (Bacillus pumilus [3]; read-out: IZ): 7.25 mm; zone of inhibition at 600 µg/mL (Streptococcus pyogenes [24]): 8.19 mm; zone of inhibition at 900 µg/mL (Streptococcus pyogenes [25]): 16.5 mm; zone of inhibition at 900 µg/mL (Staphylococcus aureus [26]): 20 mm; zone of inhibition at 600 µg/mL (Escherichia coli [27]): 3.06 mm
3 | CCC(C)n1ncn(-c2ccc(N3CCN(c4ccc(OCC5COC(Cn6cncn6)(c6ccc(Cl)cc6Cl)O5)cc4)CC3)cc2)c1=O (configuration not stated) [ITRACONAZOLE] |  |  |  |  |  |  |  |  |  |  |  |  |  |  | 20 mm | 10.8 mm | 5.46 mm | 23 mm | 12 mm | 5.35 mm | zone of inhibition at 300 µg/mL (Candida albicans [23]): 2.67 mm; zone of inhibition at 1200 µg/mL (Colletotrichum falcatum [28]): 33.8 mm; zone of inhibition at 900 µg/mL (Colletotrichum falcatum [29]): 18.3 mm; zone of inhibition at 600 µg/mL (Colletotrichum falcatum [30]): 9.34 mm; zone of inhibition at 300 µg/mL (Colletotrichum falcatum [31]): 4.45 mm; zone of inhibition at 1200 µg/mL (Exserohilum rostratum [32]): 27.4 mm; zone of inhibition at 900 µg/mL (Exserohilum rostratum [33]): 14.8 mm; zone of inhibition at 600 µg/mL (Exserohilum rostratum [34]): 7.56 mm; zone of inhibition at 300 µg/mL (Exserohilum rostratum [35]): 3.56 mm; zone of inhibition at 1200 µg/mL (Fusarium oxysporum [36]): 34.4 mm
